Values after ≈ are worked out from the molar mass of the structure shown.
Tests used:
Type in all cases: cell-based
[1] = tested on: Chlamydia pneumoniae ATCCVR-1360; assay: MIC, chlamydial inclusion assay in infected HeLa 229 cells; conditions: ATCCVR1360; Chlamydia pneumoniae ATCCVR-1360 in HeLa 229 cells; 72 hours, lowest concentration with no inclusion
Procedure: C. pneumoniae was tested using minimum essential medium supplemented with 10% heat-inactivated fetal bovine serum, 2 mM L-glutamine, […] cycloheximide and non essential amino acid. HeLa 229 cells were inoculated with 10^4 inclusion-forming units of C. pneumoniae strain per mL. Infected cells were incubated with test compounds in complete medium at 35C in an atmosphere of 5% CO2 for 72 hours. […] The MIC was defined as the lowest concentration at which no inclusion was observed.

[2] = tested on: Staphylococcus aureus Smith; assay: MIC, agar dilution method on Mueller-Hinton agar; conditions: 35C, 24 hours
Procedure: (§1) The following in vitro results were obtained based on an agar dilution method except for C. pneumoniae. The activity is presented as the minimum inhibitory concentration (MIC) S. aureus and M. catarrhalis were tested on Mueller-Hinton agar, using an approximate inoculum of 1×10^4 cfu/spot an incubation temperature of 35C for 24 hours. The MIC was defined as the lowest concentration at which no visible bacterial growth was observed.

[3] = tested on: Staphylococcus aureus MR (methicillin resistant); assay: MIC, agar dilution method on Mueller-Hinton agar; conditions: 35C, 24 hours
Procedure: as §1

[4] = tested on: Moraxella catarrhalis ATCC25238; assay: MIC, agar dilution method on Mueller-Hinton agar; conditions: 35C, 24 hours
Procedure: as §1

[5] = tested on: Staphylococcus aureus CR (chloramphenicol resistant); assay: MIC, agar dilution method on Mueller-Hinton agar; conditions: 35C, 24 hours
Procedure: as §1

[6] = tested on: Enterococcus faecium VRQR (vancomycin resistant, quinolone resistant); assay: MIC, agar dilution method on Mueller-Hinton agar with 5% defibrinated horse blood; conditions: 5% horse blood, 5% CO2, 35C, 24 hours
Procedure: as §1
(§2) Streptococci and enterococci were tested on Mueller-Hinton agar supplemented with 5% defibrinated horse blood, using an approximate inoculum of 1×10^4 cfu/spot an incubation temperature of 35C in an atmosphere of 5% CO2 for 24 hours. The MIC was defined as the lowest concentration at which no visible bacterial growth was observed.

[7] = tested on: Streptococcus pyogenes IID692; assay: as above; conditions: 5% horse blood, 5% CO2, 35C, 24 hours
Procedure: as §1, §2

[8] = tested on: Streptococcus pneumoniae PRQR (penicillin resistant, quinolone resistant); assay: as above; conditions: 5% horse blood, 5% CO2, 35C, 24 hours
Procedure: as §1, §2

[9] = tested on: Streptococcus pneumoniae IID553; assay: as above; conditions: 5% horse blood, 5% CO2, 35C, 24 hours
Procedure: as §1, §2

| Structure (SMILES) | MIC [1] | MIC [2] | MIC [3] | MIC [4] | MIC [5] | MIC [6] | MIC [7] | MIC [8] | MIC [9] |
| --- | --- | --- | --- | --- | --- | --- | --- | --- | --- |
| CC(=O)NC[C@H]1CN(c2ccc(N3CCOCC3)c(F)c2)C(=O)O1 [Linezolid, reference compound] | 8 µg/mL (≈ 23.7 µM) | 1 µg/mL (≈ 2.96 µM) | 1 µg/mL (≈ 2.96 µM) | 4 µg/mL (≈ 11.9 µM) | 16 µg/mL (≈ 47.4 µM) | 2 µg/mL (≈ 5.93 µM) | 1 µg/mL (≈ 2.96 µM) | 1 µg/mL (≈ 2.96 µM) | 2 µg/mL (≈ 5.93 µM) |
| CC(=O)NC[C@H]1CN(c2ccc(C3(C#N)CC3)c(F)c2)C(=O)O1 [example 7, N-[5(S)-3-[4-(1-Cyanocyclopropan-1-yl)-3-fluorophenyl]-2-oxooxazolidin-5-ylmethyl]acetamide] | 0.5 µg/mL (≈ 1.58 µM) | 0.5 µg/mL (≈ 1.58 µM) | 0.5 µg/mL (≈ 1.58 µM) | 4 µg/mL (≈ 12.6 µM) | 4 µg/mL (≈ 12.6 µM) | 0.5 µg/mL (≈ 1.58 µM) | 0.5 µg/mL (≈ 1.58 µM) | 1 µg/mL (≈ 3.15 µM) | 1 µg/mL (≈ 3.15 µM) |
| COC(=S)NC[C@H]1CN(c2ccc(C3(C#N)CC3)c(F)c2)C(=O)O1 [example 32, O-Methyl N-[5(S)-3-[4-(1-Cyanocyclopropan-1-yl)-3-fluorophenyl]-2-oxooxazolidin-5-ylmethyl]thiocarbonate] | 4 µg/mL (≈ 11.4 µM) | 0.125 µg/mL (≈ 0.358 µM) | 0.125 µg/mL (≈ 0.358 µM) | 0.5 µg/mL (≈ 1.43 µM) | 2 µg/mL (≈ 5.72 µM) | 0.25 µg/mL (≈ 0.716 µM) | 0.125 µg/mL (≈ 0.358 µM) | 0.125 µg/mL (≈ 0.358 µM) | 0.25 µg/mL (≈ 0.716 µM) |

Continued, values first:

| MIC [1] | MIC [2] | MIC [3] | MIC [4] | MIC [5] | MIC [6] | MIC [7] | MIC [8] | MIC [9] | Structure (SMILES) |
| --- | --- | --- | --- | --- | --- | --- | --- | --- | --- |
| 0.25 µg/mL (≈ 0.75 µM) | 0.125 µg/mL (≈ 0.375 µM) | 0.125 µg/mL (≈ 0.375 µM) | 0.5 µg/mL (≈ 1.5 µM) | 0.5 µg/mL (≈ 1.5 µM) | 0.25 µg/mL (≈ 0.75 µM) | 0.125 µg/mL (≈ 0.375 µM) | 0.25 µg/mL (≈ 0.75 µM) | 0.25 µg/mL (≈ 0.75 µM) | CC(=S)NC[C@H]1CN(c2ccc(C3(C#N)CC3)c(F)c2)C(=O)O1 [example 8, N-[5(S)-3-[4-(1-Cyanocyclopropan-1-yl)-3-fluorophenyl]-2-oxooxazolidin-5-ylmethyl]thioacetamide] |
| – | 0.5 µg/mL (≈ 1.46 µM) | 0.5 µg/mL (≈ 1.46 µM) | 8 µg/mL (≈ 23.4 µM) | 16 µg/mL (≈ 46.7 µM) | 1 µg/mL (≈ 2.92 µM) | 1 µg/mL (≈ 2.92 µM) | 1 µg/mL (≈ 2.92 µM) | 1 µg/mL (≈ 2.92 µM) | N#CC1(c2ccc(N3C[C@H](CNc4ccon4)OC3=O)cc2F)CC1 [example 18, 5(S)-3-[4-(1-Cyanocyclopropan-1-yl)-3-fluorophenyl]-5-[N-(1,2-isoxadiazolyl-3-yl)amino]methyloxazolidin-2-one] |
